Assays:
THP1.1 = experiment: Payload cell potency and lethality CellTiter-Glo, THP1; assay type: cell-based; details: payload of the ADC
Method: Each concentration was tested in triplicate. […] Values represent time zero (TO).

Ad2.1 pre-mRNA splicing = experiment: In vitro splicing (IVS) RT-qPCR, Ad2.1 pre-mRNA in HeLa S3 nuclear extract; assay type: biochemical; details: payload of the ADC; read-out: qPCR-IVS-ATS GMean IC50 (nM) Ad2.1
Method: To evaluate payload activity in a cell-free system, an in vitro splicing assay was performed. The payloads were incubated with nuclear extracts and pre-mRNA substrate minigenes.
HeLa nuclear extract preparation: HeLa S3 cell pellets were resuspended in hypotonic buffer (10 mM HEPES PH 7.9, 1.5 mM MgCl2, 10 mM KCl, 0.2 mM PMSF, 0.5 mM DTT) and the suspension was brought up to a total of 5 packed cell volume (PCV). After centrifugation, the supernatant was discarded, and the cells were brought up to 3 PCV with hypotonic buffer and incubated on ice for 10 min. Cells were lysed using a dounce homogenizer and then centrifuged. […]. The nuclei were gently mixed for 30 min before centrifuging. The supernatant (nuclear extract) was then dialyzed into storage buffer (20 mM HEPES pH 7.9, 100 mM KCl, 0.2 mM EDTA, 20% glycerol, 0.2 mM PMSF, 0.5 mM DTT). Protein concentration was determined using NanoDrop 8000 UV-Vis spectrophotometer (ThermoFisher Scientific).
IVS: All Ad2-derived sequences (Pellizzoni et al. (1998) Cell 95 (5): 615-24) were cloned into pcDNA3.1(+) vector (Promega) using 5′ EcoRI and 3′ XbaI restriction sites. The plasmids were linearized using XbaI and used as DNA templates in in vitro transcription reactions. The FtzΔi intron-less plasmid (Luo and Reed (1999) 96 (26): 14937-42) was linearized using EcoRI. […]

[1] = Caco-2 permeability of ADC payload; assay type: in vitro ADME; details: human, Caco-2; payload, apical to basolateral, 2 hours; read-out: Permeability Mean Caco-2 A-B Perm (10e−6 cm/s)
Method: Integrity of cell monolayer was confirmed by TEER (transepithelial electrical resistance) and Lucifer yellow. Payloads were spiked in duplicate at 10 µM, separately, on both sides of the cell monolayer. Permeability rates from the apical to basolateral (A−B) direction and the basolateral to apical (B−A) direction were determined by sampling aliquots from both chambers immediately after treatment (t=0) and following incubation for 2 hours. Samples were protein precipitated with organic solvent containing internal standard and analyzed by LC-MS/MS (SCIEX; API 5500). The area ratio responses of payload/internal standard over time in both directions were used to generate permeability (cm/sec) values.

N87 cells = experiment: Cell viability CellTiter-Glo, N87; assay type: cell-based, human; details: unconjugated payload of the ADC
Method: (§1) HCC1954 (American Type Culture Collection (ATCC)) breast ductal carcinoma cells were plated at 2000 cells/well in flat bottom 96-well tissue culture plates (Corning) in a total volume of 90 μL tissue culture medium supplemented with 10% fetal bovine serum (ThermoFisher Scientific). Cells were treated with a 3-fold serial dilution of compound from 200 nM to 0.03 nM. Each concentration was tested in triplicate. At the time of treatment, a plate of untreated cells was evaluated using CellTiter-Glo®2.0 Luminescent Cell Viability Assay according to the manufacturer's recommendations (Promega; #G9241). CellTiter-Glo® 2.0 reagent was added to the medium, incubated, and assayed on an EnVision Multilabel Reader (PerkinElmer). Values represent time zero (TO). […] Percentage growth inhibition was calculated as: [(T144−T0)/(C−T0)]×100 for concentrations for which T144>/=T0 or [(T144−T0)/T0]×100 for concentrations for which T144<T0. The dose response curve plots were generated using Prism 7 (Graphpad) and fit using nonlinear regression analysis and the log (inhibitor) versus response—variable slope (four parameters).
HCC1954 (ATCC), 2000 cells/well), N87 (ATCC, 4000 cells/well), SKBR3 (ATCC, 3000 cells/well), and MCF7 (ATCC, 1500 cells/well) cell lines were used. Cell viability analysis was performed as described in section 2.3.

PC3 cells = experiment: Cell viability, EPHA2-expressing PC3; assay type: cell-based; details: free payload of the ADC
Method: as §1
(§2) Anti-CD138 ADCs were tested in the CD138-expressing MOLP8 multiple myeloma cell line. Similarly, anti-EPHA2 ADCs were tested in the EPHA2-expressing PC3 prostate cancer cell line.

MOLP8 cells = experiment: Cell viability, CD138-expressing MOLP8; assay type: cell-based; details: unconjugated payload of the ADC
Method: as §1, §2

Row | Compound | Payload cell lethality: CT..-ATS GMean LD50 (nM) THP1.1 (THP1.1) [nM] | IC50 (Ad2.1 pre-mRNA splicing) [nM] | Papp A→B at 2 h, 10 µM [1] [×10⁻⁶ cm/s] | Payload Rmin (%) (N87 cells) | Payload Rmin (PC3 cells) [%] | Payload Rmin (%) (MOLP8 cells)
1 | C/C(=C\c1cc(F)cc(N2CCN(C(=O)Cn3cccn3)CC2)c1)[C@H]1OC(=O)C[C@H](O)CC[C@H](C)[C@@H](OC(=O)N2CCNCC2)/C=C/[C@@H]1C [D16] | 21.48 | 18 |  |  |  | 
2 | CC(=O)N1CCC(n2nnc3c(F)cc(/C=C(\C)[C@H]4OC(=O)C[C@H](O)CC[C@H](C)[C@@H](OC(=O)N5CCNCC5)/C=C/[C@@H]4C)cc32)CC1 [D14] |  |  | 0.08 | −52.662 | −79.835 | −6.1
